Measured values as given in patent publication US9249114B2, “Thiazole derivatives” (Merck Patent GmbH, priority 2011, dated 2016).

Experiments:
[1] = biological target: TANK binding kinase (TBK1) (Homo sapiens (Human), UniProt Q9UHD2); experiment: TBK1 enzyme assay (384-well Flashplate kinase assay); assay type: biochemical; details: 10 μM ATP, 120 Min at 30° C.
Procedure: Test for the Inhibition of TBK1
The kinase assay is performed as 384-well Flashplate assay (for e.g. Topcount measurement. 0.6 nM TANK binding kinase (TBK1), 800 nM biotinylated MELK-derived peptide (Biotin-Ah-Ah-[…]) SEQ ID NO: 2 and 10 μM ATP (spiked with 0.25 μCi ^33P-ATP/well) are incubated in a total volume of 50 μl (10 mM MOPS, 10 mM Mg-acetat, 0.1 mM EGTA, 1 mM DTT, 0.02% Brij35, 0.1% BSA, pH 7.5) with or without test compound for 120 Min at 30° C. The reaction is stopped with 25 μl 200 mM EDTA. After 30 Min at room temperature the liquid is removed and each well washed thrice with 100 μl 0.9% sodium chloride solution. Nonspecific reaction is determined in presence of 100 nM Staurosporine. Radioactivity is measured in a Topcount (PerkinElmer). Results (e.g. IC50-values) are calculated with program tools provided by the IT-department (e.g. AssayExplorer, Symyx).

[2] = biological target: IKKε (Homo sapiens (Human), UniProt Q14164); experiment: IKKε kinase assay (384-well Flashplate); assay type: biochemical; details: 10 μM ATP, 2 hours at 30° C.; read-out: IKKε enzyme assay IC50
Chain of IKKε (Q14164 whole entry): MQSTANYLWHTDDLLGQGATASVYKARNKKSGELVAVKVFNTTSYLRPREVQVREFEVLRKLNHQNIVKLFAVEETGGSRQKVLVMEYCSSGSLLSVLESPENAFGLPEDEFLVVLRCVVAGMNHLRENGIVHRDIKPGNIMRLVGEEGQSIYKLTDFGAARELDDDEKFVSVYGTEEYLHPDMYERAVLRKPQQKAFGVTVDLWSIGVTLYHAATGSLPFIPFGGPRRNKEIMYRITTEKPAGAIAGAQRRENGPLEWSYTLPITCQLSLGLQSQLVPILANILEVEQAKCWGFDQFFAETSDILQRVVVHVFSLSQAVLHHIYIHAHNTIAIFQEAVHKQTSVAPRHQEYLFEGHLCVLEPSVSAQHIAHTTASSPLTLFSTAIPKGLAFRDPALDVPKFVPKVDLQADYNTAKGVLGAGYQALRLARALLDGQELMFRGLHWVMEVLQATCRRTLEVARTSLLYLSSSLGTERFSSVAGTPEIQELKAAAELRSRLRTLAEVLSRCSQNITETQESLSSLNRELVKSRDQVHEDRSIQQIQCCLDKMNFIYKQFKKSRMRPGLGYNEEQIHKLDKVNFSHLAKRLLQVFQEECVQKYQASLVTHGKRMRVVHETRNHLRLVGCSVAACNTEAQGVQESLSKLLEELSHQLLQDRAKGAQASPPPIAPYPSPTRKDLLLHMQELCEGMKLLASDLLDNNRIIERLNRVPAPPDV
Procedure: Test for the Inhibition of IKKε
IKKε—Kinase Assay (IKKepsilon)
The kinase assay is performed either as 384-well Flashplate assay (for e.g. Topcount measurement). […] The reaction is stopped with 25 μl 200 mM EDTA. After 30 Min at room temperature the liquid is removed and each well washed thrice with 100 μl 0.9% sodium chloride solution. […] Radioactivity is measured with Topcount (PerkinElmer). Results (e.g. IC50-values) are calculated with program tools provided by the IT-department (e.g. AssayExplorer, Symyx).

Chain of TANK binding kinase (TBK1) (Q9UHD2 whole entry): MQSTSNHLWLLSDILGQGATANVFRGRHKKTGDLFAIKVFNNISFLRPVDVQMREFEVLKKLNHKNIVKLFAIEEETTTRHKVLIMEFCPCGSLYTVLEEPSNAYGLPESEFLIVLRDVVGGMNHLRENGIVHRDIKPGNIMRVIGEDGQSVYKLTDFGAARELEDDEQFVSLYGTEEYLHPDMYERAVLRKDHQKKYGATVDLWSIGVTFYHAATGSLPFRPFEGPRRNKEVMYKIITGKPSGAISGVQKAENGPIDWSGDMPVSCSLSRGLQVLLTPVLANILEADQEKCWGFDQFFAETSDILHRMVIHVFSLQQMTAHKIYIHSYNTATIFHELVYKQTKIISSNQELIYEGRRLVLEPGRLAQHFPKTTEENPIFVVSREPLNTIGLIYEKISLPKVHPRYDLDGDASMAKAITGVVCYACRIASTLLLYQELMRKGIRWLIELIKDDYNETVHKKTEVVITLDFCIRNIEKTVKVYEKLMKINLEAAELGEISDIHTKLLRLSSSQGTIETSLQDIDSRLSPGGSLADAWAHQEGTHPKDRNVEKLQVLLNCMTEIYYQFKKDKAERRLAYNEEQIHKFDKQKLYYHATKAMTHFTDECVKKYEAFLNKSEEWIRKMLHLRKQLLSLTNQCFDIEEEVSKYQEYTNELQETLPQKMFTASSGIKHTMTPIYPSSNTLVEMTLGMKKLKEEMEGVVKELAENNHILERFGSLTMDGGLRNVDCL

Row | IC50 [1] [µM] | IC50 [2] [µM] | SMILES
1 | 0.3 |  | CN1CCN(Cc2ccc(C(=O)Nc3sc(-c4ccncc4)nc3C(N)=O)cc2)CC1 [Compound A4, 5-[4-(4-methyl-piperazin-1-ylmethyl)-benzoylamino]-2-pyridin-4-yl-thiazole-4-carboxylic acid amide]
2 | 0.094 |  | NC(=O)c1nc(-c2ccncc2)sc1NC(=O)c1ccc(CC2CCN(C(N)=O)CC2)cc1 [Compound A23, 4-[4-(4-carbamoyl-2-pyridin-4-yl-thiazol-5-ylcarbamoyl)-benzyl]-piperidine-1-carboxylic acid amide]
3 | 0.099 |  | CN(C)C(=O)CCCCc1ccc(C(=O)Nc2sc(-c3ccncc3)nc2C(N)=O)cc1 [Compound A25, 5-[4-(4-dimethylcarbamoyl-butyl)-benzoylamino]-2-pyridin-4-yl-thiazole-4-carboxylic acid amide]
4 | 0.16 |  | NC(=O)c1nc(-c2ccncc2)sc1NC(=O)c1ccc(CCCCCC(=O)O)cc1 [Compound A28, 6-[4-(4-carbamoyl-2-pyridin-4-yl-thiazol-5-ylcarbamoyl)-phenyl]-hexanoic acid]
5 | 0.19 |  | NC(=O)c1nc(-c2ccncc2)sc1NC(=O)c1ccc(CC2CCNCC2)cc1 [Compound A29, 5-(4-piperidin-4-ylmethyl-benzoylamino)-2-pyridin-4-yl-thiazole-4-carboxylic acid amide]
6 | 0.2 |  | CC(=O)N1CCC(Cc2ccc(C(=O)Nc3sc(-c4ccncc4)nc3C(N)=O)cc2)CC1 [Compound A30, 5-[4-(1-acetyl-piperidin-4-ylmethyl)-benzoylamino]-2-pyridin-4-yl-thiazole-4-carboxylic acid amide]
7 | 0.21 |  | CN(C)CCNCc1ccc(C(=O)Nc2sc(-c3ccncc3)nc2C(N)=O)cc1 [Compound A31, 5-{4-[(2-dimethylamino-ethylamino)-methyl]-benzoylamino}-2-pyridin-4-yl-thiazole-4-carboxylic acid amide]
8 | 0.24 |  | CNC(=O)CCCCc1ccc(C(=O)Nc2sc(-c3ccncc3)nc2C(N)=O)cc1 [Compound A32, 5-[4-(4-methylcarbamoyl-butyl)-benzoylamino]-2-pyridin-4-yl-thiazole-4-carboxylic acid amide]
9 | 0.26 |  | COCCNCc1ccc(C(=O)Nc2sc(-c3ccncc3)nc2C(N)=O)cc1 [Compound A33, 5-{4-[(2-methoxy-ethylamino)-methyl]-benzoylamino}-2-pyridin-4-yl-thiazole-4-carboxylic acid amide]
10 | 0.31 |  | CN1CCN(C(=O)c2ccc(C(=O)Nc3sc(-c4ccncc4)nc3C(N)=O)cc2)CC1 [Compound A34, 5-[4-(4-methyl-piperazine-1-carbonyl)-benzoylamino]-2-pyridin-4-yl-thiazole-4-carboxylic acid amide]
11 | 0.58 |  | CN(C)C(=O)CCCCCc1ccc(C(=O)Nc2sc(-c3ccncc3)nc2C(N)=O)cc1 [Compound A35, 5-[4-(5-dimethylcarbamoyl-pentyl)-benzoylamino]-2-pyridin-4-yl-thiazole-4-carboxylic acid amide]
12 | 0.645 |  | NC(=O)c1nc(-c2ccncc2)sc1NC(=O)c1ccc(CN2CCOCC2)cc1 [Compound A36, 5-(4-morpholin-4-ylmethyl-benzoylamino)-2-pyridin-4-yl-thiazole-4-carboxylic acid amide]
13 | 1.16 |  | NC(=O)c1nc(-c2ccncc2)sc1NC(=O)c1ccc(CN2CCCC2)cc1 [Compound A38, 2-pyridin-4-yl-5-(4-pyrrolidin-1-ylmethyl-benzoylamino)-thiazole-4-carboxylic acid amide]
14 | 1.5 |  | COc1ccc(C(=O)Nc2sc(-c3ccncc3)nc2C(N)=O)cc1OC [Compound A41, 5-(3,4-dimethoxy-benzoylamino)-2-pyridin-4-yl-thiazole-4-carboxylic acid amide]
15 | 3.6 |  | NC(=O)c1nc(-c2ccncc2)sc1NC(=O)c1ccccc1 [Compound A56, 5-benzoylamino-2-pyridin-4-yl-thiazole-4-carboxylic acid amide]

The remaining lines, values behind:

Row | SMILES | IC50 [1] [µM] | IC50 [2] [µM]
16 | CN1CCN(Cc2ccc(C(=O)Nc3sc(-c4ccnc(Cl)c4)nc3C(N)=O)cc2)CC1 [Compound A5, 2-(2-chloro-pyridin-4-yl)-5-[4-(4-methyl-piperazin-1-ylmethyl)-benzoylamino]-thiazole-4-carboxylic acid amide] | 1.4 | 
17 | CN1CCN(Cc2ccc(C(=O)Nc3sc(-c4ccnc(F)c4)nc3C(N)=O)cc2)CC1 [Compound A6, 2-(2-fluoro-pyridin-4-yl)-5-[4-(4-methyl-piperazin-1-ylmethyl)-benzoylamino]-thiazole-4-carboxylic acid amide] | 0.63 | 0.54
18 | Cc1cc(-c2nc(C(N)=O)c(NC(=O)c3ccc(CN4CCN(C)CC4)cc3)s2)ccn1 [Compound A7, 5-[4-(4-methyl-piperazin-1-ylmethyl)-benzoylamino]-2-(2-methyl-pyridin-4-yl)-thiazole-4-carboxylic acid amide] | 0.41 | 0.39
19 | CN1CCN(Cc2ccc(C(=O)Nc3sc(-c4ccnc(C(F)(F)F)c4)nc3C(N)=O)cc2)CC1 [Compound A8, 5-[4-(4-methyl-piperazin-1-ylmethyl)-benzoylamino]-2-(2-trifluoromethyl-pyridin-4-yl)-thiazole-4-carboxylic acid amide] | 6.3 | 2.1
20 | CN1CCN(Cc2ccc(C(=O)Nc3sc(-c4ccnc(C#N)c4)nc3C(N)=O)cc2)CC1 [Compound A9, 2-(2-cyano-pyridin-4-yl)-5-[4-(4-methyl-piperazin-1-ylmethyl)-benzoylamino]-thiazole-4-carboxylic acid amide] | 2 | 0.74
21 | CN1CCN(Cc2ccc(Nc3sc(-c4ccncc4)nc3C(N)=O)cc2)CC1 [Compound A14, 5-[4-(4-methyl-piperazin-1-ylmethyl)-phenylamino]-2-pyridin-4-yl-thiazole-4-carboxylic acid amide] | 1.7 | 0.42
22 | Cc1cc(-c2nc(C(N)=O)c(NC(=O)c3ccc(CN4CCN(C)CC4)cc3)s2)cc(C)n1 [Compound A16, 2-(2,6-dimethyl-pyridin-4-yl)-5-[4-(4-methyl-piperazin-1-ylmethyl)-benzoylamino]-thiazole-4-carboxylic acid amide] |  | 3.8
23 | CN1CCN(Cc2ccc(C(=O)Nc3sc(-c4ccncc4C(F)(F)F)nc3C(N)=O)cc2)CC1 [Compound A17, 5-[4-(4-methyl-piperazin-1-ylmethyl)-benzoylamino]-2-(3-trifluoromethyl-pyridin-4-yl)-thiazole-4-carboxylic acid amide] | 1.4 | 0.14
24 | CN1CCN(Cc2ccc(C(=O)Nc3sc(-c4ccncc4Br)nc3C(N)=O)cc2)CC1 [Compound A18, 2-(3-bromo-pyridin-4-yl)-5-[4-(4-methyl-piperazin-1-ylmethyl)-benzoylamino]-thiazole-4-carboxylic acid amide] | 0.31 | 0.19
25 | CN1CCN(Cc2ccc(C(=O)Nc3sc(-c4ccncc4F)nc3C(N)=O)cc2)CC1 [Compound A19, 2-(3-fluoro-pyridin-4-yl)-5-[4-(4-methyl-piperazin-1-ylmethyl)-benzoylamino]-thiazole-4-carboxylic acid amide] | 0.37 | 0.28
26 | CN1CCN(Cc2ccc(C(=O)Nc3sc(-c4ccncc4Cl)nc3C(N)=O)cc2)CC1 [Compound A20, 2-(3-chloro-pyridin-4-yl)-5-[4-(4-methyl-piperazin-1-ylmethyl)-benzoylamino]-thiazole-4-carboxylic acid amide] | 0.64 | 0.63
27 | COc1cnccc1-c1nc(C(N)=O)c(NC(=O)c2ccc(CN3CCN(C)CC3)cc2)s1 [Compound A21, 2-(3-methoxy-pyridin-4-yl)-5-[4-(4-methyl-piperazin-1-ylmethyl)-benzoylamino]-thiazole-4-carboxylic acid amide] | 0.046 | 0.014
28 | CC(C)(C)OC(=O)N1CCN(c2ccc(C(=O)Nc3sc(-c4ccncc4)nc3C(N)=O)cn2)CC1 [Compound A39, 4-[5-(4-Carbamoyl-2-pyridin-4-yl-thiazol-5-ylcarbamoyl)-pyridin-2-yl]-piperazine-1-carboxylic acid tert-butyl ester] | 1.2 | 
29 | NC(=O)c1nc(-c2ccncc2)sc1NC(=O)c1cnn(CC2CCNCC2)c1 [Compound A44, 5-[(1-piperidin-4-ylmethyl-1H-pyrazole-4-carbonyl)-amino]-2-pyridin-4-yl-thiazole-4-carboxylic acid amide] | 7.9 | 
30 | CN1CCN(Cc2ccc(C(=O)Nc3sc(-c4ccncc4)nc3C#N)cc2)CC1 [Compound A45, N-(4-cyano-2-pyridin-4-yl-thiazol-5-yl)-4-(4-methyl-piperazin-1-ylmethyl)-benzamide] | 8.2 | 
31 | NC(=O)c1nc(-c2ccncc2)sc1NC(=O)c1cccs1 [Compound A62, 2-pyridin-4-yl-5-[(2-thienylcarbonyl)amino]-1,3-thiazole-4-carboxamide] | 2 | 
32 | NC(=O)c1nc(-c2ccncc2)sc1NC(=O)c1ccoc1 [Compound A64, 5-(3-furoylamino)-2-pyridin-4-yl-1,3-thiazole-4-carboxamide] | 4.6 | 
